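Growth conditions: 96-well plates. Treatment: test compound, 48 hours, 5 concentrations. Analysis: linear interpolation between bracketing concentrations; unreached endpoints set to highest concentration. GI50 marks 50% less growth.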 Active and inactive are the calls of the source. No stated cut-off is given here; in the data, active = GI50 up to about 1.1 µM and inactive = higher.
How the values were obtained:
Assay in all cases: growth of human tumour cells (NCI), 48 h
COLO 205 = tested on: COLO 205
EKVX = tested on: EKVX
HCT-116 = tested on: HCT-116
HCT-15 = tested on: HCT-15
HT-29 = tested on: HT-29
IGROV-1 = tested on: IGROV-1
KM12 = tested on: KM12
M14 = tested on: M14
RXF 393 = tested on: RXF 393
SK-MEL-28 = tested on: SK-MEL-28
SW-620 = tested on: SW-620
A498 = tested on: A498
NCI-H226 = tested on: NCI-H226
OVCAR-5 = tested on: OVCAR-5
SF-539 = tested on: SF-539

Row | SMILES | GI50 (COLO 205) | GI50 (EKVX) | GI50 (HCT-116) | GI50 (HCT-15) [µM] | GI50 (HT-29) | GI50 (IGROV-1) | GI50 (KM12) | GI50 (M14) | GI50 (RXF 393) | GI50 (SK-MEL-28) | GI50 (SW-620) | GI50 (A498) | GI50 (NCI-H226) | GI50 (OVCAR-5) | GI50 (SF-539)
1 | O=C1C(Br)=CC2(C=C1Br)CCNC1=C2C(=O)c2ccccc2C1=O | 4.61 µM (inactive) | 38.5 µM (inactive) | 4.13 µM (inactive) | 7.76 | 18.7 µM (inactive) | 18.5 µM (inactive) | 8.22 µM (inactive) | 18.4 µM (inactive) | 3.84 µM (inactive) | > 10 µM (inactive) | 9.98 µM (inactive) |  |  |  | 
2 | CSc1ccc2c(cc1=O)[C@@H](NC(=O)c1ccc(F)cc1)CCc1cc(O)c(O)c(O)c1-2 | > 100 µM (inactive) | > 100 µM (inactive) | > 100 µM (inactive) | > 100 | > 100 µM (inactive) | > 100 µM (inactive) | > 100 µM (inactive) | > 100 µM (inactive) | > 100 µM (inactive) | > 100 µM (inactive) | > 100 µM (inactive) | > 100 µM (inactive) | > 100 µM (inactive) | > 100 µM (inactive) | > 100 µM (inactive)
3 | CCCCCCCCCCCCCCCCP(=O)(OC)OC | 17 µM (inactive) | 15 µM (inactive) | 18.9 µM (inactive) | 16.6 | 17.5 µM (inactive) | 16.7 µM (inactive) | 17.9 µM (inactive) | 16.3 µM (inactive) | 19 µM (inactive) | 17.7 µM (inactive) | 14.7 µM (inactive) |  | 17.1 µM (inactive) | 13.9 µM (inactive) | 20.6 µM (inactive)
4 | COc1cccc(C2c3cc4c(cc3OC(O)(CO)C2C(=O)O)OCO4)c1.COc1cccc(C2c3cc4c(cc3OC3(O)COC(=O)C23)OCO4)c1 (configuration not stated) | > 100 µM (inactive) | 42.8 µM (inactive) | 46.1 µM (inactive) | 43.9 | 37.7 µM (inactive) | 62.7 µM (inactive) | 35.7 µM (inactive) | 48.8 µM (inactive) | 33.5 µM (inactive) | 26.9 µM (inactive) | 82.2 µM (inactive) | 47.4 µM (inactive) | 50 µM (inactive) | > 100 µM (inactive) | > 100 µM (inactive)
5 | COc1ccccc1NC(=O)C(CC(C(=O)Nc1ccccc1OC)/C(C)=N/NC(=O)c1ccccc1O)/C(C)=N/NC(=O)c1ccccc1O (configuration not stated) | > 100 µM (inactive) | 72.9 µM (inactive) |  |  | > 100 µM (inactive) | > 100 µM (inactive) | > 100 µM (inactive) | > 100 µM (inactive) | 38.8 µM (inactive) | > 100 µM (inactive) | 88.5 µM (inactive) | 65 µM (inactive) | 60.3 µM (inactive) | > 100 µM (inactive) | 54.2 µM (inactive)
6 | COC(=O)C(c1ccc(OC)cc1)N1C(=O)[C@@H](NC(=O)c2ccccc2)[C@H]1[C@@H](C)O (some centres not stated) | > 100 µM (inactive) | > 100 µM (inactive) | > 100 µM (inactive) | > 100 | > 100 µM (inactive) | > 100 µM (inactive) | > 100 µM (inactive) | > 100 µM (inactive) | > 100 µM (inactive) | > 100 µM (inactive) | > 100 µM (inactive) |  | > 100 µM (inactive) |  | > 100 µM (inactive)
7 | CC(=O)N1CCc2[nH]c3ccccc3c2CC1 | > 100 µM (inactive) | > 100 µM (inactive) | > 100 µM (inactive) | > 100 | > 100 µM (inactive) | > 100 µM (inactive) | > 100 µM (inactive) | > 100 µM (inactive) |  | > 100 µM (inactive) | > 100 µM (inactive) | > 100 µM (inactive) |  | > 100 µM (inactive) | > 100 µM (inactive)
8 | Nc1ncnc2c1ncn2CCCC(c1ccccc1)P(=O)(O)O (configuration not stated) | > 100 µM (inactive) | > 100 µM (inactive) | > 100 µM (inactive) | > 100 | > 100 µM (inactive) | > 100 µM (inactive) | > 100 µM (inactive) |  | > 100 µM (inactive) | > 100 µM (inactive) | > 100 µM (inactive) | 63 µM (inactive) | > 100 µM (inactive) | > 100 µM (inactive) | > 100 µM (inactive)
9 | O=c1[nH]c2cc([N+](=O)[O-])ccc2nc1/C(=N/Nc1ccccc1)C(O)c1ccccc1Cl (configuration not stated) | 39.7 µM (inactive) | 67.3 µM (inactive) | > 100 µM (inactive) | 7.8 | 46 µM (inactive) | 43.9 µM (inactive) | 27.8 µM (inactive) | 47.3 µM (inactive) | > 100 µM (inactive) | > 100 µM (inactive) | 41.9 µM (inactive) |  | 80.2 µM (inactive) | 95.5 µM (inactive) | 44.9 µM (inactive)
10 | O=C(O)C#CCO | > 100 µM (inactive) | > 100 µM (inactive) | > 100 µM (inactive) | > 100 | > 100 µM (inactive) | > 100 µM (inactive) | > 100 µM (inactive) | > 100 µM (inactive) | > 100 µM (inactive) | > 100 µM (inactive) | > 100 µM (inactive) | > 100 µM (inactive) |  | > 100 µM (inactive) | > 100 µM (inactive)
11 | Cc1cc(CC(O)c2ccc(Cl)c(Cl)c2)nc(O)n1 (configuration not stated) | 31 µM (inactive) | 29.8 µM (inactive) | 19.6 µM (inactive) | 30.7 | 46.9 µM (inactive) |  | 36.4 µM (inactive) | 32.8 µM (inactive) |  | > 100 µM (inactive) | 36.1 µM (inactive) | 53.8 µM (inactive) | 26.9 µM (inactive) | 69 µM (inactive) | 
12 | [O-]c1c2cc(-[n+]3c(-c4ccccc4)cc(-c4ccccc4)cc3-c3ccccc3)cc1COCCOCCOCCOCCOC2 | 18.7 µM (inactive) | 33.9 µM (inactive) | 32.8 µM (inactive) | 73.6 | 35.6 µM (inactive) |  | 20.4 µM (inactive) | 37.4 µM (inactive) |  | 18 µM (inactive) | 48.9 µM (inactive) |  | > 100 µM (inactive) | > 100 µM (inactive) | 33 µM (inactive)
13 | O=[N+]([O-])c1ccc(-c2ccc(/C=N/n3c(S)nnc3-c3ccc(Cl)cc3)o2)cc1 | 32.1 µM (inactive) | > 100 µM (inactive) | 17.7 µM (inactive) | 22.6 | 22 µM (inactive) | > 81.3 µM (inactive) | 22.8 µM (inactive) | 16.1 µM (inactive) |  | 16.6 µM (inactive) | 29 µM (inactive) | > 100 µM (inactive) | > 38.6 µM (inactive) | > 100 µM (inactive) | > 40.2 µM (inactive)
14 | N=C(N)NS(=O)(=O)c1ccc(NC(=O)c2cccc3c(Nc4ccc(S(=O)(=O)N=C(N)N)cc4)c4ccc(Cl)cc4nc23)cc1 | 47.2 µM (inactive) | 96.8 µM (inactive) | 38.7 µM (inactive) | > 100 | > 100 µM (inactive) | 74.8 µM (inactive) | > 100 µM (inactive) | 70.1 µM (inactive) | > 100 µM (inactive) | 75 µM (inactive) | 62.4 µM (inactive) | > 100 µM (inactive) |  | > 100 µM (inactive) | > 100 µM (inactive)
15 | Cc1cc(N(CCC#N)CCC#N)ccc1/C=C/C(=O)Nc1cccc(Cl)c1 | > 100 µM (inactive) | > 100 µM (inactive) | > 100 µM (inactive) | 38.5 | > 100 µM (inactive) | > 100 µM (inactive) | > 100 µM (inactive) | > 100 µM (inactive) |  | > 100 µM (inactive) | > 100 µM (inactive) | > 100 µM (inactive) | > 100 µM (inactive) | > 100 µM (inactive) | > 100 µM (inactive)
